# From ChEMBL document CHEMBL4602691, “Selective DYRK1A Inhibitor for the Treatment of Type 1 Diabetes: Discovery of 6-Azaindole Derivative GNF2133” (J Med Chem, 2020)
# What was measured:
# [1] = Metabolic stability in human liver microsomes assessed as intrinsic clearance at 1 uM incubated for 30 mins by LC-MS/MS analysis; format: ADME, Microsome; conditions: 0.5 h
# [2] = Metabolic stability in rat liver microsomes assessed as intrinsic clearance at 1 uM incubated for 30 mins by LC-MS/MS analysis; format: ADME, Microsome; conditions: 0.5 h
# [3] = Metabolic stability in mouse liver microsomes assessed as intrinsic clearance at 1 uM incubated for 30 mins by LC-MS/MS analysis; format: ADME, Microsome; conditions: 0.5 h
# [4] = Aqueous solubility of compound at pH 6.8; format: physicochemical; conditions: aqueous medium
# [5] = Clearance in CD-1 mouse at 2 mg/kg, iv; format: ADME, organism-based; conditions: in vivo
# [6] = Volume of distribution at steady state in CD-1 mouse at 2 mg/kg, iv; format: ADME, organism-based; conditions: in vivo, read-out: Vdss
# [7] = AUC in CD-1 mouse at 2 mg/kg, iv; format: ADME, organism-based; conditions: in vivo
# [8] = Cmax in CD-1 mouse at 2 mg/kg, iv; format: ADME, organism-based; set-up: dose 2 mg/kg, route intravenous; conditions: in vivo
# [9] = Tmax in CD-1 mouse at 2 mg/kg, iv; format: ADME, organism-based; conditions: in vivo
# [10] = Clast in CD-1 mouse at 2 mg/kg, iv; format: ADME, organism-based; conditions: in vivo, read-out: Clast
# [11] = Half life in CD-1 mouse at 2 mg/kg, iv; format: ADME, organism-based; conditions: in vivo
# [12] = AUC in CD-1 mouse at 30 mg/kg, po; format: ADME, organism-based; conditions: in vivo
# [13] = Cmax in CD-1 mouse at 30 mg/kg, po; format: ADME, organism-based; set-up: dose 30 mg/kg, route oral; conditions: in vivo
# [14] = Tmax in CD-1 mouse at 30 mg/kg, po; format: ADME, organism-based; conditions: in vivo
# [15] = Clast in CD-1 mouse at 30 mg/kg, po; format: ADME, organism-based; conditions: in vivo, read-out: Clast
# [16] = Half life in CD-1 mouse at 30 mg/kg, po; format: ADME, organism-based; conditions: in vivo
# [17] = Oral bioavailability in CD-1 mouse at 30 mg/kg; format: ADME, organism-based; conditions: in vivo
# [18] = AUC in CD-1 mouse pancreas at 30 mg/kg, po; format: ADME, organism-based
# [19] = Cmax in CD-1 mouse pancreas at 30 mg/kg, po; format: ADME, organism-based; set-up: dose 30 mg/kg, route oral
# [20] = Tmax in CD-1 mouse pancreas at 30 mg/kg, po; format: ADME, organism-based
# [21] = Clast in CD-1 mouse pancreas at 30 mg/kg, po; format: ADME, organism-based; conditions: in vivo, read-out: Clast
# [22] = Half life in CD-1 mouse pancreas at 30 mg/kg, po; format: ADME, organism-based
CLH [1],CLH [2],CLH [3],SMILES,other results
83%,67%,90%,c1ccc(Cn2cc(-c3ccncc3)c3ccncc32)cc1,–
28%,18%,30%,CCN1CCN(C(=O)Nc2cc(-c3cn(C4CCOCC4)c4cnccc34)ccn2)CC1,solubility [4]: > 175 µM
43%,45%,43%,CC1(C)CN(C(=O)Nc2cc(-c3cn(C4CCOCC4)c4cnccc34)ccn2)C1,–
–,18%,23%,C[C@@H]1CN(C(=O)Nc2cc(-c3cn(C4CCOCC4)c4cnccc34)ccn2)C[C@H](C)O1,–
87%,86%,94%,Nc1cc(-c2cn(-c3ccccc3)c3cnccc23)ccn1,–
–,–,–,CCN1CCN(C(=O)Nc2cc(-c3cn(C4CCOCC4)c4cnccc34)ccn2)CC1.Cl,clearance [5]: 23.5 mL/min/kg; Vd [6]: 11 L/kg; AUC [7]: 3.27 µM·h; Cmax [8]: 1980 nM; Tmax [9]: 1.8 min; concentration [10]: 36.6 nM; half-life [11]: 396 min; AUC [12]: 11 µM·h; Cmax [13]: 1680 nM; Tmax [14]: 3 h; concentration [15]: 19 nM; half-life [16]: 204 min; bioavailability [17]: 22.3%; AUC [18]: 144 µM·h; Cmax [19]: 13.3 µM; Tmax [20]: 3 h; concentration [21]: 1320 nM; half-life [22]: 396 min
21%,25%,23%,O=C(Nc1cc(-c2cn(C3CCOCC3)c3cnccc23)ccn1)N1CCOCC1,–
87%,87%,97%,c1cc(-c2cn(CC3CC3)c3cnccc23)ccn1,–
21%,60%,70%,O=C(Nc1cc(-c2cn(-c3ccccc3)c3cnccc23)ccn1)NC1CC1,–
21%,18%,23%,C[C@@H]1CN(C(=O)Nc2cc(-c3cn([C@H]4CC[C@@](C)(O)CC4)c4cnccc34)ccn2)C[C@H](C)O1,solubility [4]: > 175 µM
–,83%,91%,c1cc(-c2cn(C3CCOCC3)c3cnccc23)ccn1,–
92%,90%,97%,c1ccc(-n2cc(-c3ccncc3)c3ccncc32)cc1,–
39%,69%,90%,CC1(Cn2cc(-c3ccncc3)c3ccncc32)COC1,–
–,42%,71%,O=C(Nc1cc(-c2cn(C3CCOCC3)c3cnccc23)ccn1)NC1CC1,–
83%,79%,95%,CC(C)Cn1cc(-c2ccncc2)c2ccncc21,–
44%,50%,76%,O=C(Nc1cc(-c2cn(-c3ccccc3)c3cnccc23)ccn1)C1CC1,–
